Source: ChEMBL document CHEMBL1201862, “PubChem BioAssay data set” (2004)
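Where inhibition never reached the appropriate level, the endpoint shown equals the highest concentration tested. Otherwise, values were interpolated linearly from a five-concentration, 48-hour dose response in 96-well plates. Here, GI50 denotes the concentration required for 50% inhibition of growth.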 The source made the active and inactive calls. No stated cut-off is given here; in the data, active = GI50 up to about 1.1 µM and inactive = higher.

Tests used:
Test in all cases: growth of human tumour cells (NCI), 48 h
SF-295 = system: SF-295
SK-OV-3 = system: SK-OV-3
TK-10 = system: TK-10
KM12 = system: KM12
786-0 = system: 786-0
SK-MEL-5 = system: SK-MEL-5
EKVX = system: EKVX
SW-620 = system: SW-620
HCT-116 = system: HCT-116
NCI-H23 = system: NCI-H23
U-251 = system: U-251
NCI-H226 = system: NCI-H226
SNB-19 = system: SNB-19
HL-60 = system: HL-60
HCT-15 = system: HCT-15
T47D = system: T47D
COLO 205 = system: COLO 205
Hs-578T = system: Hs-578T
MDA-MB-435 = system: MDA-MB-435
OVCAR-5 = system: OVCAR-5
RXF 393 = system: RXF 393
A498 = system: A498
NCI-H522 = system: NCI-H522
PC-3 = system: PC-3
NCI/ADR-RES = system: NCI/ADR-RES
UACC-257 = system: UACC-257
A549 = system: A549
HCC 2998 = system: HCC 2998
HOP-92 = system: HOP-92
Malme-3M = system: Malme-3M
UACC-62 = system: UACC-62
SK-MEL-28 = system: SK-MEL-28
SK-MEL-2 = system: SK-MEL-2
CCRF-CEM = system: CCRF-CEM
OVCAR-8 = system: OVCAR-8
ACHN = system: ACHN
MCF7 = system: MCF7
SN12C = system: SN12C
MDA-MB-231 = system: MDA-MB-231
NCI-H460 = system: NCI-H460
K562 = system: K562
BT-549 = system: BT-549
UO-31 = system: UO-31
HT-29 = system: HT-29
SR = system: SR
SF-268 = system: SF-268
IGROV-1 = system: IGROV-1
MOLT-4 = system: MOLT-4
HOP-62 = system: HOP-62
RPMI-8226 = system: RPMI-8226
DU-145 = system: DU-145
OVCAR-4 = system: OVCAR-4
M14 = system: M14
SNB-75 = system: SNB-75
LOX IMVI = system: LOX IMVI
SF-539 = system: SF-539
MDA-N = system: MDA-N
OVCAR-3 = system: OVCAR-3
CAKI-1 = system: CAKI-1

Measured: GI50

CC(C)(C)[C@@H]1NC(=O)CN1C(=O)OCc1ccccc1
inactive: SF-295 > 100 µM | SK-OV-3 > 100 µM | TK-10 > 100 µM | KM12 > 100 µM | 786-0 > 100 µM | SK-MEL-5 > 100 µM | EKVX > 100 µM | SW-620 > 100 µM | HCT-116 > 100 µM | NCI-H23 > 100 µM | U-251 > 100 µM | NCI-H226 > 100 µM | SNB-19 > 100 µM | HL-60 > 100 µM | T47D > 100 µM | COLO 205 > 100 µM | MDA-MB-435 > 100 µM | OVCAR-5 > 100 µM | RXF 393 > 100 µM | A498 > 100 µM | NCI-H522 > 100 µM | PC-3 > 100 µM | NCI/ADR-RES > 100 µM | UACC-257 > 100 µM | A549 > 100 µM | HCC 2998 > 100 µM | HOP-92 > 100 µM | Malme-3M > 100 µM | UACC-62 > 100 µM | SK-MEL-28 > 100 µM | SK-MEL-2 > 100 µM | CCRF-CEM > 100 µM | OVCAR-8 > 100 µM | ACHN > 100 µM | MCF7 > 100 µM | SN12C > 100 µM | MDA-MB-231 > 100 µM | NCI-H460 > 100 µM | K562 > 100 µM | BT-549 > 100 µM | UO-31 > 100 µM | HT-29 > 100 µM | SR > 100 µM | SF-268 > 100 µM | IGROV-1 > 100 µM | MOLT-4 > 100 µM | HOP-62 > 100 µM | RPMI-8226 > 100 µM | DU-145 > 100 µM | OVCAR-4 > 100 µM | M14 > 100 µM | SNB-75 > 100 µM | LOX IMVI > 100 µM | SF-539 > 100 µM
active: Hs-578T 0.661 µM
> 100 µM: HCT-15

CCCCCCCCCCCCCCCCOCC(CC(F)(F)P(=O)(O)O)OC(C)=O (stereo not given)
inactive: SF-295 > 50 µM | SK-OV-3 > 50 µM | TK-10 > 50 µM | KM12 > 50 µM | 786-0 > 50 µM | SK-MEL-5 > 50 µM | MDA-N > 50 µM | EKVX > 50 µM | SW-620 > 50 µM | HCT-116 > 50 µM | NCI-H23 > 50 µM | U-251 > 50 µM | NCI-H226 > 50 µM | SNB-19 > 50 µM | OVCAR-3 > 50 µM | COLO 205 > 50 µM | MDA-MB-435 > 50 µM | OVCAR-5 > 50 µM | A498 > 50 µM | NCI-H522 > 50 µM | PC-3 > 50 µM | NCI/ADR-RES > 50 µM | UACC-257 > 50 µM | A549 > 50 µM | HCC 2998 > 50 µM | HOP-92 > 50 µM | Malme-3M > 50 µM | UACC-62 > 50 µM | SK-MEL-28 > 50 µM | SK-MEL-2 > 50 µM | ACHN > 50 µM | MCF7 > 50 µM | SN12C > 50 µM | MDA-MB-231 > 50 µM | NCI-H460 > 50 µM | K562 > 50 µM | BT-549 > 50 µM | UO-31 > 50 µM | HT-29 > 50 µM | CAKI-1 > 50 µM | SF-268 > 50 µM | IGROV-1 > 50 µM | MOLT-4 > 50 µM | HOP-62 15.1 µM | RPMI-8226 > 50 µM | DU-145 > 50 µM | M14 > 50 µM | SNB-75 > 50 µM
> 50 µM: HCT-15
